US20060069132A1, “Azolecarboxamide herbicides” (priority 2004, published 2006)
Read-outs that look alike come from different tables or passages of the source.

Columns and labels:
[1] = test system: morningglory; experiment: Test A pre-/postemergence herbicide test; format: in vivo, Ipomoea spp.; settings: for pest or weed control at 500 g/ha / pest or weed control at 2000 g/ha: Ipomoea, 240 h
In short: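 Pre: seeded sandy loam, directed soil spray, compound in non-phytotoxic solvent + surfactant. Post: 1–2-leaf plants (2–10 cm), sprayed to runoff. Greenhouse ~10 d; visual injury vs untreated, 0–100 scale.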

[2] = test system: rice; experiment: Test B pre-/postemergence herbicide test; format: in vivo, Oryza sativa; settings: preemergence; for Rice plant response rating (0 to 100 scale) / Plant response rating, Rice: 0 = no effect, 100 = complete control; for Plant response rating, Rice: 500 g ai/ha, visual rating
In short: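 Pre: seeds sown, then sprayed. Post: 1–4-leaf plants (2–18 cm) sprayed at the same time. Paddy: flooded, treated at 2-leaf stage. Formulation: non-phytotoxic solvent with surfactant. Greenhouse 13–15 days; visual 0–100 score relative to controls.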

[3] = test system: yellow nutsedge; experiment: Test C pre-/postemergence herbicide test; format: in vivo, Cyperus esculentus
In short: (§1)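 Visual injury scores run from 0 (no effect) to 100 (complete control), assessed relative to untreated controls 12 to 14 days after treatment in the greenhouse. Chemicals were formulated in a non-phytotoxic solvent mixture with surfactant and applied to soil after planting or to emerged plants at the 1- to 4-leaf stage.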

[4] = test system: goosegrass; experiment: Test C pre-/postemergence herbicide test; format: in vivo, Eleusine indica
In short: as §1

[5] = test system: soybean; experiment: Test C pre-/postemergence herbicide test; format: in vivo, Glycine max
In short: as §1

[6] = test system: smallflower umbrella sedge; experiment: Test C flooded paddy test; format: in vivo, Cyperus difformis; settings: for Plant response rating, Sedge, Umbrella: 500 g ai/ha, visual rating after 12 to 14 days
[7] = test system: rice; experiment: Test C flooded paddy test; format: in vivo, Oryza sativa; settings: for Plant response rating, Rice: 500 g ai/ha, visual rating after 12 to 14 days
In short: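 Plants were grown to the 1- to 4-leaf stage (2–18 cm) and then treated postemergence, or grown to the 2-leaf stage for the flooded paddy test. They were held in a greenhouse for 12 to 14 days and then scored by eye against controls, where 0 is no effect and 100 is complete control.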

[8] = Postemergence, 500 g ai/ha, scale 0 to 100
[9] = 125 g ai/ha, scale 0 to 100 (0 no effect, 100 complete control)
[10] = 250 g ai/ha, scale of 0 to 100, 0 is no effect, 100 is complete control
[11] = scale 0 to 100 (0 no effect, 100 complete control)
[12] = Postemergence, 500 g ai/ha, 0 to 100 scale, 0 no effect, 100 complete control
[13] = Postemergence, 2000 g ai/ha, 0 to 100 scale, 0 no effect, 100 complete control
[14] = Preemergence, 2000 g ai/ha, visual rating, 0 to 100 scale (0 no effect, 100 complete control)
[15] = preemergence, 500 g ai/ha, visual injury, 0 to 100 scale (0 no effect, 100 complete control)
[16] = Postemergence, 250 g ai/ha, scale 0 to 100, 0 no effect, 100 complete control
[17] = postemergence, 125 g ai/ha, scale 0 to 100
[18] = postemergence, 62 g ai/ha, scale 0 to 100

Row | Structure (SMILES) | Sedge, Umbrella plant response rating ([6]; 62 g ai/ha, scale 0 to 100) | Sedge, Umbrella plant response rating [6, 9] | Sedge, Umbrella plant response rating [6, 10] | Plant response rating, Sedge, Umbrella [6, 11] | Morningglory plant response rating [1, 12] | Plant response rating, Morningglory [1, 13] | Morningglory plant response rating [1, 14] | Morningglory plant response rating [1, 15] | Rice plant response rating (0 to 100 scale) ([2]; 125 g ai/ha) | Plant response rating, Rice [2] | Rice plant response rating ([7]; 62 g ai/ha, scale 0 to 100) | Rice plant response rating [7, 9] | Rice plant response rating [7, 10] | Plant response rating, Rice [7, 11] | also measured
1 | CCn1nc(C(C)(C)C)cc1C(=O)Nc1cccc(C(=O)OCCF)c1 [Compound 82, 2-fluoroethyl 3-[[[3-(1,1-dimethylethyl)-1-ethyl-1H-pyrazol-5-yl]-carbonyl]amino]benzoate] | – | – | – | – | – | – | – | – | – | – | – | – | – | – | pest or weed control at 500 g/ha ([1]; post-emergence, Postemergence, 500 g ai/ha, 0 to 100 scale, 0 no effect, 100 complete control, read-out: Plant response rating, Morningglory): 20%; pest or weed control at 2000 g/ha ([1]; post-emergence, Postemergence, 2000 g ai/ha, 0 to 100 scale, 0 no effect, 100 complete control, read-out: Plant response rating, Morningglory): 10%; pest or weed control at 500 g/ha ([1]; pre-emergence, Preemergence, 500 g ai/ha, visual rating, 0 to 100 scale (0 no effect, 100 complete control), read-out: Morningglory plant response rating): 0%; pest or weed control at 2000 g/ha ([1]; pre-emergence, Preemergence, 2000 g ai/ha, 0 to 100 scale, 0 no effect, 100 complete control, read-out: Morningglory plant response rating): 15%; plant injury at 125 g/ha ([2]; Oryza sativa, pre-emergence, 336 h, 125 g ai/ha, 0 to 100 scale, 0 is no effect, 100 is complete control, read-out: Plant response rating, Rice): 0%; pest or weed control at 250 g/ha ([3]; Cyperus, post-emergence, Postemergence, 250 g ai/ha, scale 0 to 100, 0 no effect, 100 complete control, read-out: Plant response rating, Nutsedge, Yellow): 5%; pest or weed control at 125 g/ha ([3]; Cyperus, post-emergence, postemergence, 125 g ai/ha, scale 0 to 100, read-out: Plant response rating, Nutsedge, Yellow): 5%; pest or weed control at 62 g/ha ([3]; Cyperus, post-emergence, postemergence, 62 g ai/ha, scale 0 to 100, read-out: Plant response rating, Nutsedge, Yellow): 0%; Nutsedge, Yellow plant response rating [3, 8]: 5; pest or weed control at 250 g/ha ([4]; Eleusine indica, post-emergence, 312 h, Postemergence, 250 g ai/ha, scale 0 to 100, 0 no effect, 100 complete control, read-out: Plant response rating, Goosegrass): 10%; pest or weed control at 125 g/ha ([4]; Eleusine indica, post-emergence, 312 h, postemergence, 125 g ai/ha, scale 0 to 100, read-out: Plant response rating, Goosegrass): 10%; pest or weed control at 62 g/ha ([4]; Eleusine indica, post-emergence, 312 h, postemergence, 62 g ai/ha, scale 0 to 100, read-out: Plant response rating, Goosegrass): 0%; Goosegrass plant response rating [4, 8]: 10; plant injury at 250 g/ha ([5]; Glycine max, post-emergence, Postemergence, 250 g ai/ha, scale 0 to 100, 0 no effect, 100 complete control, read-out: Plant response rating, Soybean): 40%; plant injury at 125 g/ha ([5]; Glycine max, post-emergence, postemergence, 125 g ai/ha, scale 0 to 100, read-out: Plant response rating, Soybean): 30%; plant injury at 62 g/ha ([5]; Glycine max, post-emergence, postemergence, 62 g ai/ha, scale 0 to 100, read-out: Plant response rating, Soybean): 20%; Soybean plant response rating [5, 8]: 40
2 | CCn1nc(C(C)(C)C)cc1C(=O)Nc1cncc(C(=O)N2CC=CC2)n1 [Compound 290] | 0 | 25 | 65 | 70 | 20 | 30 | 40 | 10 | 0 | 80 | 0 | 0 | 15 | 45 | –
3 | CCOC(=O)c1cccc(NC(=O)c2cc(C3(C)CC3)nn2CC)c1 [Compound 295] | 80 | 80 | 80 | 80 | – | – | – | – | 10 | 20 | 5 | 10 | 40 | 40 | Plant response rating, Nutsedge, Yellow [3, 16]: 5; Plant response rating, Nutsedge, Yellow [3, 17]: 5; Plant response rating, Nutsedge, Yellow [3, 18]: 5; Plant response rating, Goosegrass [4, 16]: 50; Plant response rating, Goosegrass [4, 17]: 20; Plant response rating, Goosegrass [4, 18]: 20; Plant response rating, Soybean [5, 16]: 55; Plant response rating, Soybean [5, 17]: 50; Plant response rating, Soybean [5, 18]: 50
4 | C#CCNC(=O)c1cccc(NC(=O)c2sc(C(C)(C)C)nc2CC)c1 [Compound 319] | 20 | 35 | 70 | 80 | 15 | 25 | 60 | 20 | – | 70 | 0 | 35 | 35 | 70 | Plant response rating (0 to 100 scale), Rice ([2]; 125 g ai/ha, 0 is no effect, 100 is complete control): 30
